Reference: patent US12516060B2, “Solid freebase forms of 5-chloro-2-(4-((2-hydroxy-2-methylpropyl)amino)pyrido[3,4-d]pyridazin-1-yl)phenol for inhibiting NLRP3 and uses thereof” (Ventus Therapeutics U.S., Inc., priority 2023, dated 2026)
“Also recorded” adds a separate entry of the source.

Columns and labels:
Assay type in all cases: physicochemical
[1] = Dynamic Vapor Sorption (DVS)
Experimental: DVS was performed using TA Instruments Q5000SA. The sample (5-15 mg) was loaded into a metallic quartz sample pan, suspended from a microbalance, and exposed to a humidified stream of nitrogen gas. Weight changes were relative to a matching empty reference pan opposite the sample, suspended from the microbalance. The sample was held for a minimum of 10 min at each level and only progressed to the next humidity level if there was <0.002% change in weight between measurements (interval: 5 s) or 45 min had elapsed (for 5-65% RH) or 2 h had elapsed (for 80 and 95% RH). Mass change by DVS is related to hygroscopicity.

[2] = Second set of competitive slurry experiments (Form V vs Form I and Form II)
Experimental: A second set of competitive slurry experiments was set up in three solvent systems and two temperatures to assess the relative stability of Form V freebase with respect to Form I freebase and Form II freebase. […] In all samples, the input seed patterns were observed less than 1 min after addition. […] After 7 days, the quantity of Form II freebase remaining in the RT acetonitrile sample was greatly diminished, though Form II freebase was still present in trace quantities.

[3] = Solid form stability studies, 75% RH at 40° C. for one week (XRPD and HPLC)
Experimental: Solid form stability studies were performed on Form I-V freebase forms by weighing approximately 10-15 mg of the crystalline material into 4 mL vials and covering with a lab grade task wipe (Kimwipe). These vials were placed inside a stability chamber set at 75%±5% relative humidity (RH) at 40° C.±2° C., where they were left for one week (7 full days). The retrieved material was then analyzed by XRPD and HPLC. In each case, the initial material and tested material were identical by XRPD, with the exception of Form I freebase, where an extra peak at 5.8 °2θ in the initial material was absent after the stability test. HPLC purities of the tested material were essentially unchanged from those of the initial material.

DVS mass change 5-95% RH (wt. %) ([1]; 5-95% RH): 0.20 wt. %
water uptake, weight gain between 5-95% relative humidity (RH) ([1]; DVS, 5-95% RH): about 0.20%
hygroscopicity ([1]; DVS, all adsorbed water lost during the drying cycle): slightly, hygroscopic
relative hygroscopicity among the Forms studied by DVS ([1]; Forms I-V): least hygroscopic
XRPD pre- and post-DVS ([1]; form stability after DVS cycle): remained unchanged
XRPD (tested material) ([3]; 75% ± 5% RH at 40° C. ± 2° C. for 1 week): Form V
Purity % a/a (tested material) ([3]; HPLC, after 75% ± 5% RH at 40° C. ± 2° C. for 1 week): 99.60 % a/a
Purity % a/a (input material) ([3]; HPLC, before stability test): 99.46 % a/a
solid-form and chemical stability at elevated RH ([3]; one-week at 75% RH and 40° C.): no form change or purity decrease
SMILES: CC(C)(O)CNc1nnc(-c2ccc(Cl)cc2O)c2ccncc12 [Form V freebase, 5-chloro-2-(4-((2-hydroxy-2-methylpropyl)amino)pyrido[3,4-d]pyridazin-1-yl)phenol]
form observed by XRPD after 3 days ([2]; acetonitrile, MeOH, acetone:water (7:3 vol.), RT and 50° C., 3 days): the sole form observed in all experiments, except in acetonitrile at RT
relative (thermodynamic) stability vs Form I and Form II ([2]; second set of slurries, various solvent systems): favored over both Form I and II freebase; also recorded: most thermodynamically stable form studied
